Laboratory results: PubChem BioAssay AID179 (DTP/NCI, 2004)
The source made the active and inactive calls.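 The calls were made as follows: active = compounds giving half or more protection of infected cells from virus-caused growth loss, again on retest; inactive = the rest.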

System: CEM cells HIV-1 protection, formazan growth assay
Test: NCI AIDS Antiviral Assay
Details: for IC50: measured here: growth of uninfected CEM cells
Method in brief: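 Soluble formazan readout of cell growth; CEM cells ± HIV-1; 5 drug concs. ≥50% protection → retest; ≥50% again = moderately active; reproducible 100% = confirmed active.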

Compound	EC50 [µM]	IC50 [µM]	outcome
CCCCCCCCCCC[N+]1(Cc2ccccc2)CC2CCN(Cc3ccccc3)CC2C1 (configuration not stated)	> 2	0.234	
CC/C(=C/OC)P1(=O)OC(C)(C)CN1C(C)(C)C (configuration not stated)	> 200	151	
CCc1nc(N)nc(N)c1-c1ccc(Cl)cc1	> 1	0.0372	
CCN(CC)c1ccc2cc(C(=O)NCc3ccccc3)c(=N)oc2c1	> 200	11	
CCCCN(CCO)Cc1cc(Nc2c3ccccc3nc3ccccc23)ccc1O	> 63.1	20.4	
CCN(CC)CCC(=O)NC1c2ccccc2Sc2c(C)cccc21 (configuration not stated)	> 513	44.7	
COC(=O)[C@@]12CSC[C@]1(C(=O)OC)N[C@@H](c1ccccc1O)C2	> 200	> 200	
O=c1[nH]c(=O)n(C2OC(CF)C(O)C2O)cc1N1CCOCC1 (configuration not stated)	> 200	> 200	
O=[N+]([O-])c1ccc2nsnc2c1	> 105	47.9	
CC(=O)Nc1ccc(/C=C/C(=O)c2ccccc2)cc1	> 38	> 38	
c1ccc2c(c1)Nc1nc3nonc3nc1N2	> 200	> 200	
COC(=O)c1cc2c(cc1CC1Cc3cc4c(cc3C1)CCC4)CCC2	> 200	> 200	
O=S(c1ccccc1)c1ccccc1	> 447	389	
CCOC(=O)c1cn2c(nc1=O)N[C@H]1CCCC[C@@H]12	> 200	> 200	
Cn1c(N=[N+]=[N-])cc(=O)n(C)c1=O			inactive
COc1ccc(C2CCC(=O)CC2(O)C(=O)O)cc1 (configuration not stated)	> 251	> 251	
C/C(CCn1[nH]c(=O)ccc1=O)=N\N=C(N)N	> 4.37	> 4.37	
CC1(C)CC2=C(SC3C=CC=CC3N2)C(=O)C1C(=O)C(N)=O (configuration not stated)	> 58.9	> 58.9	
COc1ccccc1C(=O)NCC1CCCN2CCCCC12 (configuration not stated)	> 200	> 200	
Clc1cc(Cl)cc(N=C/C=C/Nc2cc(Cl)cc(Cl)c2)c1			inactive
COc1cc2c(oc(=O)c3c4occc4cc(OC)c23)c2cccc(OCc3ccccc3)c12	> 1.15	> 1.15	
C=C(C)C12CC3CC(/C(=N/O)C(C1)/C3=N\O)[C@@]2(C)O (some centres not stated)	> 355	> 355	

Compound	EC50 [µM]	IC50 [µM]	outcome
O=C(CCc1ccc(O)c(O)c1)NCCc1ccc(O)c(O)c1	> 200	9.55	
CCC1c2c(cc(=O)[nH]c2O)C(=O)N1Cc1ccccc1 (configuration not stated)	> 398	> 398	
O=C(Cn1c2c(c3ccccc31)CCCC2)N1CCOCC1	> 200	> 200	
C/C(=C\CNc1ncnc2c1ncn2CCC(=O)OC(C)(C)C)CO	> 200	> 200	
CCCCC(C(=O)CCC(=O)Nc1ccc(Cl)cc1)C(=O)C(C)C (configuration not stated)	> 186	> 186	
CN1C[C@H]2[C@@H](C1=O)[C@H](c1ccc([N+](=O)[O-])cc1)ON2C	> 200	> 200	
CC1CNc2cccc3[nH]c(=S)n(c23)C1 (configuration not stated)	> 200	> 200	
COc1ccccc1OCc1nnc(SCC(=O)O)n1-c1ccccc1	> 676	> 676	
COc1cc2c(c(O)c1OC)C(=O)[C@@H]1CCC(=O)N1C2c1ccccc1 (some centres not stated)	> 200	83.2	
N#Cc1cnc2nc1NCCCCCCC2	> 204	132	
Cc1nc(SCC(=O)Nc2ccc(Cl)cc2)c2sc(=S)n(-c3ccccc3)c2n1	> 200	> 200	
CC(=O)OCC1OC(n2c3c(c(-c4ccco4)c(C#N)c2=S)CCCC3)C(OC(C)=O)C(OC(C)=O)C1OC(C)=O (configuration not stated)	> 200	155	
CC1CCC2c3c([nH]c4ccccc34)C3C(=O)N(c4ccccc4)C(=O)C3C2C1 (configuration not stated)			inactive
C[N+](C)(C)CC(CC(=O)[O-])C1CC1 (configuration not stated)	> 1350	> 1350	
O=[N+]([O-])c1cc(-c2ccccc2)c([O][Sn]([c]2ccccc2)([c]2ccccc2)[c]2ccccc2)c([N+](=O)[O-])c1	> 200	3.8	
CC(C)NC(=O)OCCN=C1c2ccccc2C(Br)C(Br)c2ccccc21 (configuration not stated)	> 200	0.575	
OC/C=C/c1cccc(Cl)c1			inactive
CCOc1cc2c(cc1O)C(O)C[C@@H]1[C@@H]2CC[C@]2(C)[C@@H](O)CC[C@@H]12 (some centres not stated)	> 200	0.0776	
COc1ccccc1NC(=O)C(=O)C(C(=O)c1ccccc1F)C1OC(=O)c2ccccc21 (configuration not stated)	> 288	20.9	
O=C(c1cccc(O)c(=O)c1)C1OC1c1ccccc1 (configuration not stated)	> 145	2.82	
Cn1c(-c2ccc(/C=N/NC(N)=NCCCCCCN=C(N)N/N=C/c3ccc(-c4c[n+]5ccccc5n4C)cc3)cc2)c[n+]2ccccc12	2.24	30.2	
NNC(=O)c1n[nH]nc1SSc1n[nH]nc1C(=O)NN			inactive

Compound	EC50 [µM]	IC50 [µM]	outcome
CCN(CC)CCN1CCc2c([nH]c3ccccc23)C1c1cccnc1 (configuration not stated)	> 145	> 145	
CO/N=C(\C(=O)[N-][n+]1cnn(CC(=O)O)c1)c1csc(N)n1	> 200	> 200	
O=[N+]([O-])C(=C(Sc1ccccc1)Sc1ccccc1)C(Cl)=C(Cl)Cl			inactive
COC(=O)/C(C#N)=C(\N)c1c(C)c2ccccc2oc1=N	> 200	> 200	
CCCCON1C[C@H](OC(C)=O)C(OC(C)=O)[C@H](OC(C)=O)C1 (some centres not stated)	> 200	> 200	
COc1c2cc(C(C)(C)C)cc1Cc1cccc(c1O)Cc1cc(C(C)(C)C)cc(c1OC)Cc1cccc(c1O)Cc1cc(C(C)(C)C)cc(c1OC)Cc1cccc(c1O)C2	> 151	> 151	
FC(F)(F)c1ccc(N=NN2CCCC2)cc1	> 200	22.9	
O=C1CC(C2(c3ccc4c(c3)OCO4)SCCCS2)CO1 (configuration not stated)	> 155	> 155	
CCCCN=C(OC1C=CCCC1)SC (configuration not stated)	> 200	155	
O=S1(=O)NCNc2cc(C(F)(F)F)ccc21	> 1000	380	
CN(C)c1ccc(C(c2c(O)c3ccc(O)cc3oc2=O)c2c(O)c3ccc(O)cc3oc2=O)cc1	> 200	30.2	
CN(C)CCCNc1c(C#N)[n+]([O-])c2cc(Cl)ccc2[n+]1[O-]	> 2	1	
OCCN(CCO)c1cc(Cl)c(Cl)cc1Cl	> 200	35.5	
CCCCCCCCCCCCCCCCOC[C@@H](COC(c1ccccc1)(c1ccccc1)c1ccccc1)O[P+](=S)OC (some centres not stated)	> 200	22.4	
CCNC1CC(C(C)(C)NCC)CC=C1C (configuration not stated)	> 224	> 224	
CN(C)c1nc(N)c(N=O)c(=O)[nH]1	> 200	178	
CCOC(=O)c1[nH]cc(C)c1-c1ccc2c(-c3ccccc3)nc3ccccc3n12	> 200	3.16	
CC(C)=CCC[C@@H](C)c1c(O)c(O)c(C)c2nc3ccccc3nc12	> 200	5.89	
CC1=CC(C)(C)NN1C1=NS(=O)(=O)c2ccccc2N1C	> 200	> 200	
O=S(=O)(O)c1cc(N=Nc2cc(S(=O)(=O)O)c3cccnc3c2O)ccc1/C=C/c1ccc(N=Nc2cc(S(=O)(=O)O)c3cccnc3c2O)cc1S(=O)(=O)O.[Cu+2].[Na+]	> 10.7	1.2	
